Target: T1, GID4 (Uniprot ID: Q81VV7, residues 124-289) (Homo sapiens, UniProt Q8IVV7)
T1 construct: GID4 (Uniprot ID: Q81VV7, residues 124-289)
T1 sequence (Q8IVV7 124-289): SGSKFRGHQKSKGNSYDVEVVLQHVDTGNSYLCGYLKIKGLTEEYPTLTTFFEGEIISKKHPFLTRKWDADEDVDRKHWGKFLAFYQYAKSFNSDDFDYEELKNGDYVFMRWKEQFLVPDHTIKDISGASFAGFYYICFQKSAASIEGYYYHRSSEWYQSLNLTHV
Test: GID4 competitive binding assay (AlphaScreen, GID4/degron peptide PGLW)
Settings: 24 nM GID4, 48 nM biotinylated degron peptide PGLW, 4° C., read-out: IC50 (Inhibition of GID4/Degron binding by test compounds)
How it was run: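 Displacement of biotin-tagged degron tetrapeptide PGLW (48 nM) from C-terminally 6His-tagged GID4 124-289 (24 nM) read by AlphaScreen proximity signal. Compound incubation 2 h, then beads 1 h, all at 4 °C, pH 7.5, 2% DMSO final; background-corrected inhibition fitted with variable slope for IC50.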

IC50 | SMILES
0.5 to 5 µM | CNc1nc(C(C)C)cc(N2CCNC(c3ccccc3Br)C2)n1 (single isomer, unassigned) [Compound 152, (R/S)-4-(3-(2-bromophenyl)piperazin-1-yl)-6-isopropyl-N-methylpyrimidin-2-amine]
< 0.5 µM | CC(C)c1cc(N2CCNC(c3cc(O)ccc3Br)C2)nc(N)n1 (stereo not shown) [Compound 163, 3-(4-(2-amino-6-isopropylpyrimidin-4-yl)piperazin-2-yl)-4-bromophenol]
> 5 µM | CC(C)c1cc(N2CCC=C(c3ccccc3Br)C2)nc(N)n1 [Compound 230, 4-(5-(2-bromophenyl)-3,6-dihydropyridin-1(2H)-yl)-6-isopropylpyrimidin-2-amine]
0.5 to 5 µM | CN(C)CCCNC(=O)N1CC=C(c2cc(O)c3ncccc3c2)CC1 [Compound 306, N-(3-(dimethylamino)propyl)-4-(8-hydroxyquinolin-6-yl)-3,6-dihydropyridine-1(2H)-carboxamide]
0.5 to 5 µM | Nc1nc(N2CCOC(c3ccccc3Br)C2)c2[nH]ccc2n1 (single isomer, unassigned) [Compound 46, (R/S)-4-(2-(2-bromophenyl)morpholino)-5H-pyrrolo[3,2-d]pyrimidin-2-amine]
0.5 to 5 µM | O=C(c1ccc(-c2cc(O)c3ncccc3c2)cc1)N1CCCC1 [Compound 301, (4-(8-hydroxyquinolin-6-yl)phenyl)(pyrrolidin-1-yl)methanone]
< 0.5 µM | Nc1nccc2ccc(-c3ccc4[nH]nc(C(=O)NC[C@H]5CC[C@@H](O)CC5)c4c3)cc12 [Compound 333, 5-(1-aminoisoquinolin-7-yl)-N-((cis-4-hydroxycyclohexyl)methyl)-1H-indazole-3-carboxamide]
> 5 µM | CN1CC(CNC(=O)c2cccc(-c3ccc4ccnc(N)c4c3)c2)C1 [Compound 347, 3-(1-aminoisoquinolin-7-yl)-N-((1-methylazetidin-3-yl)methyl)benzamide]
> 5 µM | Nc1nccc2ccc(N3CCC(C(=O)N4CCCC4)C3)cc12 (stereo not shown) [Compound 354, (1-(1-aminoisoquinolin-7-yl)pyrrolidin-3-yl)(pyrrolidin-1-yl)methanone]
> 5 µM | Nc1nc2c(c(N3CCCC(c4ccn[nH]4)C3)n1)CSC2 (stereo not shown) [Compound 199, 4-(3-(1H-pyrazol-5-yl)piperidin-1-yl)-5,7-dihydrothieno[3,4-d]pyrimidin-2-amine]
< 0.5 µM | c1ccn2c(C3CCCN(c4ccnc5[nH]ccc45)C3)cnc2c1 (stereo not shown) [Compound 91, 3-(1-(1H-pyrrolo[2,3-b]pyridin-4-yl)piperidin-3-yl)imidazo[1,2-a]pyridine]
< 0.5 µM | CN(C)CCCNC(=O)CN1CC=C(c2cc(O)c3ncccc3c2)CC1 [Compound 307, N-(3-(dimethylamino)propyl)-2-(4-(8-hydroxyquinolin-6-yl)-3,6-dihydropyridin-1(2H)-yl)acetamide]
< 0.5 µM | CN1CCN(c2cc(N)nc(N)n2)CC1c1ccccc1Br (single isomer, unassigned) [Compound 143, (R/S)-6-(3-(2-bromophenyl)-4-methylpiperazin-1-yl)pyrimidine-2,4-diamine]
< 0.5 µM | CN(C)CCNC(=O)c1ccc(-c2cc(O)c3ncncc3c2)cc1 [Compound 270, N-(2-(dimethylamino)ethyl)-4-(8-hydroxyquinazolin-6-yl)benzamide]
< 0.5 µM | CN1CC(NC(=O)c2ccc(-c3cc(O)c4ncccc4c3)cc2)C1 [Compound 291, 4-(8-hydroxyquinolin-6-yl)-N-(1-methylazetidin-3-yl)benzamide]
> 5 µM | CN1CCN(CCc2cccc(-c3ccc4ccnc(N)c4c3)c2)CC1 [Compound 344, 7-(3-(2-(4-methylpiperazin-1-yl)ethyl)phenyl)isoquinolin-1-amine]
> 5 µM | Nc1nc(NC2CC2)nc(N2CCN(CCO)C(c3ccccc3Br)C2)n1 (stereo not shown) [Compound 53, 2-(4-(4-amino-6-(cyclopropylamino)-1,3,5-triazin-2-yl)-2-(2-bromophenyl)piperazin-1-yl)ethan-1-ol]
> 5 µM | CC(C)c1cc(N2CCNC(c3ccccc3)C2)nc(N)n1 (stereo not shown) [Compound 165, 4-isopropyl-6-(3-phenylpiperazin-1-yl)pyrimidin-2-amine]
< 0.5 µM | CN1CCC(CNC(=O)c2n[nH]c3ccc(-c4ccc5ccnc(N)c5c4)cc23)CC1 [Compound 337, 5-(1-aminoisoquinolin-7-yl)-N-((1-methylpiperidin-4-yl)methyl)-1H-indazole-3-carboxamide]
0.5 to 5 µM | Nc1nc2c(c(N3CCNC(c4ccccc4Br)C3)n1)COCC2 (stereo not shown) [Compound 184, 4-(3-(2-bromophenyl)piperazin-1-yl)-7,8-dihydro-5H-pyrano[4,3-d]pyrimidin-2-amine]

IC50 | SMILES
> 5 µM | Nc1nc(NCC2CC2)cc(N2CCOC(c3ccccc3Br)C2)n1 (single isomer, unassigned) [Compound 77, R or S-6-(2-(2-bromophenyl)morpholino)-N^4-(cyclopropylmethyl)pyrimidine-2,4-diamine]
0.5 to 5 µM | Nc1cc(N2CCCC(c3n[nH]c4ccccc34)C2)nc(N)n1 (stereo not shown) [Compound 246, 6-(3-(1H-indazol-3-yl)piperidin-1-yl)pyrimidine-2,4-diamine]
0.5 to 5 µM | CNc1cc(N2CCC[C@@H](c3ccccc3Br)C2)nc(NC)n1 (stereo in doubt) [Compound 84, (S/R)-6-(3-(2-bromophenyl)piperidin-1-yl)-N2,N4-dimethylpyrimidine-2,4-diamine]
0.5 to 5 µM | Nc1nccc2ccc(-c3ccc4[nH]cnc4c3)cc12 [Compound 362, 7-(1H-benzo[d]imidazol-5-yl)isoquinolin-1-amine]
0.5 to 5 µM | CNc1cc(N2CCCC(c3cnc4ccccn34)C2)nc(C(C)C)n1 (single isomer, unassigned) [Compound 125, (S/R)-6-(3-(imidazo[1,2-a]pyridin-3-yl)piperidin-1-yl)-2-isopropyl-N-methylpyrimidin-4-amine]
0.5 to 5 µM | CC(C)c1cc(N2Cc3ccnn3C(c3ccccc3Br)C2)nc(N)n1 (stereo not shown) [Compound 2, 4-(7-(2-bromophenyl)-6,7-dihydropyrazolo[1,5-a]pyrazin-5(4H)-yl)-6-isopropylpyrimidin-2-amine]
> 5 µM | CC(C)c1cc(N2CCCCC(O)(c3ccccc3Br)C2)nc(N)n1 (stereo not shown) [Compound 226, 1-(2-amino-6-isopropylpyrimidin-4-yl)-3-(2-bromophenyl)azepan-3-ol]
0.5 to 5 µM | Nc1cc(N2CCCC(O)(c3ccccc3Br)C2)nc(N)n1 (stereo not shown) [Compound 234, 3-(2-bromophenyl)-1-(2,6-diaminopyrimidin-4-yl)piperidin-3-ol]
> 5 µM | Nc1nc2c(c(N3CCCC(c4ccn[nH]4)C3)n1)CSCC2 (stereo not shown) [Compound 208, 4-(3-(1H-pyrazol-5-yl)piperidin-1-yl)-7,8-dihydro-5H-thiopyrano[4,3-d]pyrimidin-2-amine]
0.5 to 5 µM | CN(C)CCCNC(=O)c1ccc(-c2cc(O)c3ncccc3n2)cc1 [Compound 304, N-(3-(dimethylamino)propyl)-4-(4-hydroxy-1,5-naphthyridin-2-yl)benzamide]
> 5 µM | CC(C)Nc1nc(C(C)C)cc(N2CCNC(c3ccccc3Br)C2)n1 (single isomer, unassigned) [Compound 151, (R/S)-4-(3-(2-bromophenyl)piperazin-1-yl)-N,6-diisopropylpyrimidin-2-amine]
> 5 µM | CC(C)c1cc(N2CCOC(c3ccccc3Br)C2)nc(N)n1 (racemic) [Compound 158, (R/S)-4-(2-(2-bromophenyl)morpholino)-6-isopropylpyrimidin-2-amine]
0.5 to 5 µM | Cc1c(-c2ccc(Br)c(C3CN(c4cc(N)nc(N)n4)CCN3)c2)cnn1C (single isomer, unassigned) [Compound 4, (R/S)-6-(3-(2-bromo-5-(1,5-dimethyl-1H-pyrazol-4-yl)phenyl)piperazin-1-yl)pyrimidine-2,4-diamine]
< 0.5 µM | CN(C)CCCNC(=O)c1ccc(-c2cc(O)c3nccnc3c2)cc1 [Compound 285, N-(3-(dimethylamino)propyl)-4-(8-hydroxyquinoxalin-6-yl)benzamide]
< 0.5 µM | CC(C)c1nc(N2CCNC(c3cnc4ccccn34)C2)c2cc[nH]c2n1 (stereo not shown) [Compound 375, 4-(3-(imidazo[1,2-a]pyridin-3-yl)piperazin-1-yl)-2-isopropyl-7H-pyrrolo[2,3-d]pyrimidine]
0.5 to 5 µM | CNc1cc(N2CCCC(c3csc4ccccc34)C2)nc(N)n1 (stereo not shown) [Compound 82, 6-(3-(benzo[b]thiophen-3-yl)piperidin-1-yl)-N4-methylpyrimidine-2,4-diamine]
> 5 µM | Cc1cc(N2CCCC(c3ccn[nH]3)C2)nc(N)n1 (stereo not shown) [Compound 209, 4-(3-(1H-pyrazol-5-yl)piperidin-1-yl)-6-methylpyrimidin-2-amine]
> 5 µM | Nc1nc(NC2CC2)cc(N2CCNC(c3ccccc3Br)C2)n1 (single isomer, unassigned) [Compound 121, (R/S)-6-(3-(2-bromophenyl)piperazin-1-yl)-N4-cyclopropylpyrimidine-2,4-diamine]
> 5 µM | CC(=O)N1CCN(c2cc(N)nc(N)n2)C[C@@H]1c1ccccc1Br (stereo in doubt) [Compound 59, (S/R)-1-(2-(2-bromophenyl)-4-(2,6-diaminopyrimidin-4-yl)piperazin-1-yl)ethan-1-one]
> 5 µM | CC(C)c1cc(N2CCCC(c3cnc4ccccn34)C2)ncn1 (racemic) [Compound 148, (R/S)-3-(1-(6-isopropylpyrimidin-4-yl)piperidin-3-yl)imidazo[1,2-a]pyridine]

Source: US20240132464A1, “HETEROCYCLIC COMPOUNDS AS E3 LIGASE INHIBITORS” (Accutar Biotechnology Inc., priority 2022, published 2024)
